The results in this text go back to ChEMBL document CHEMBL4828718, “Synthesis and Antifungal Activity Evaluation of Phloeodictine Analogues” (J Nat Prod, 2021).

For experiment [1], the system named is Cryptococcus neoformans. As to the kind of experiment: Antifungal activity against Cryptococcus neoformans ATCC 90113 assessed as fungal growth inhibition incubated for 72 hrs by alamar blue assay. In kind it is functional. The following applies: Cryptococcus neoformans, ATCC 90113, 72 h, read-out: MIC.
The subject of experiment [2] is Cryptococcus neoformans. As to the kind of experiment: Fungicidal activity against Cryptococcus neoformans ATCC 90113 assessed as fungal growth inhibition incubated for 72 hrs by alamar blue assay. In kind it is functional. The conditions noted are these: Cryptococcus neoformans, ATCC 90113, 72 h, read-out: MFC. A general note: Resazurin is reduced to fluorescent resorufin, in cell work by metabolically active cells.

For experiment [3], the system named is Candida albicans. The experiment can be described thus: Antifungal activity against Candida albicans ATCC 90028 assessed as fungal growth inhibition incubated for 18 to 24 hrs by alamar blue assay. In kind it is functional. The conditions noted are these: Candida albicans, ATCC 90028, time 18-24 hrs; read-out: MIC.
For experiment [4], the system named is Candida albicans. The experiment can be described thus: Fungicidal activity against Candida albicans ATCC 90028 assessed as fungal growth inhibition incubated for 18 to 24 hrs by alamar blue assay. The conditions noted are these: Candida albicans, ATCC 90028, time 18-24 hrs; read-out: MFC. In kind it is functional.
Experiment [5] has as its system Nakaseomyces glabratus. The experiment can be described thus: Antifungal activity against Candida glabrata ATCC 90030 assessed as fungal growth inhibition incubated for 18 to 24 hrs by alamar blue assay. In kind it is functional. The conditions noted are these: Nakaseomyces glabratus, ATCC 90030, time 18-24 hrs; read-out: MIC.
Experiment [6] relates to Nakaseomyces glabratus. The experiment can be described thus: Fungicidal activity against Candida glabrata ATCC 90030 assessed as fungal growth inhibition incubated for 18 to 24 hrs by alamar blue assay. In kind it is functional. The following applies: Nakaseomyces glabratus, ATCC 90030, time 18-24 hrs; read-out: MFC.
Experiment [7] relates to Pichia kudriavzevii. The experiment can be described thus: Antifungal activity against Candida krusei ATCC 6258 assessed as fungal growth inhibition incubated for 18 to 24 hrs by alamar blue assay. In kind it is functional. The conditions noted are these: Pichia kudriavzevii, ATCC 6258, time 18-24 hrs; read-out: MIC.
For experiment [8], the system named is Pichia kudriavzevii. The experiment can be described thus: Fungicidal activity against Candida krusei ATCC 6258 assessed as fungal growth inhibition incubated for 18 to 24 hrs by alamar blue assay. In kind it is functional. The following applies: Pichia kudriavzevii, ATCC 6258, time 18-24 hrs; read-out: MFC.
Experiment [9] deals with Aspergillus fumigatus. As to the kind of experiment: Antifungal activity against Aspergillus fumigatus ATCC 90906 assessed as fungal growth inhibition incubated for 72 hrs by alamar blue assay. In kind it is functional.
For experiment [10], the system named is Aspergillus fumigatus. As to the kind of experiment: Fungicidal activity against Aspergillus fumigatus ATCC 90906 assessed as fungal growth inhibition incubated for 72 hrs by alamar blue assay. In kind it is functional.
In a further experiment the test system is Vero. The experiment can be described thus: Cytotoxicity against African green monkey Vero cells assessed as reduction in cell viability incubated for 48 hrs by neutral red dye based assay. The arrangement: species or system Chlorocebus sabaeus. The conditions noted are these: Chlorocebus sabaeus, Vero, 48 h.
The mark [11] stands for this setting: Aspergillus fumigatus, ATCC 90906, 72 h, read-out: MIC.
[12] abbreviates: Aspergillus fumigatus, ATCC 90906, 72 h, read-out: MFC.

Activity calls are given as the source filed them.

With `CCCCCCCCCCCCCCC1(O)C(C)=C(C)C2=[N+](CC(=O)c3cccc(Cl)c3)CCCN21` (stereo not drawn), the MIC – broadly, the smallest concentration in the dilution series that meets the test's criterion for growth inhibition – with Cryptococcus neoformans [1] amounted to 3.7 µM; in the experiment with Candida albicans [3], 18 µM; with Nakaseomyces glabratus [5], 4.9 µM; in the experiment on Pichia kudriavzevii [7], 6.2 µM. In addition, the minimal fungicidal concentration (MFC) (usually the lowest tested concentration that kills the fungus rather than only halting it) amounted to 3.7 µM in the experiment with Cryptococcus neoformans [2], 18 µM in the experiment with Candida albicans [4], 4.9 µM in the experiment on Nakaseomyces glabratus [6] and 6.2 µM with Pichia kudriavzevii [8]. Besides, in the experiment with Aspergillus fumigatus [9], the MIC result is “inactive”. For the same compound, the MFC entry in the experiment with Aspergillus fumigatus [10] was “inactive”. The half-inhibitory concentration (IC50) (usually the concentration needed to halve the response being measured) with Vero is 7.7 µM.
Consider `CCCCCCCCCCCCCCC1(O)C(C)=C(C)C2=[N+](Cc3ccc(C(F)(F)F)cc3)CCCN21` (stereo not drawn), for which the MIC in the experiment with Cryptococcus neoformans [1] was determined as 1 µM; with Candida albicans [3], 5.5 µM; in the experiment on Nakaseomyces glabratus [5], 2 µM; in the experiment on Pichia kudriavzevii [7], 2 µM; in the experiment on Aspergillus fumigatus [9] (setting [11]) it was 17 µM. The minimum fungicidal concentration (MFC) in the experiment with Cryptococcus neoformans [2] was 3.5 µM; in the experiment on Candida albicans [4], 7 µM; in the experiment with Nakaseomyces glabratus [6], 2 µM; with Pichia kudriavzevii [8], 2 µM; in the experiment on Aspergillus fumigatus [10] (setting [12]), 19 µM. Also, the half-inhibitory concentration (IC50) with Vero was > 42 µM.
On to `CCCCCCCCCCCCCCC1(O)C(C)=C(C)C2=[N+](Cc3ccc(C#N)cc3)CCCN21` (stereo not drawn), for which the MIC with Cryptococcus neoformans [1] is 1.1 µM; in the experiment on Candida albicans [3] it was 4.5 µM; in the experiment with Nakaseomyces glabratus [5] it was 2.1 µM; in the experiment with Pichia kudriavzevii [7] it was 2.1 µM; in the experiment with Aspergillus fumigatus [9] (setting [11]), 4.5 µM. In addition, the MFC with Cryptococcus neoformans [2] turned out to be 1.1 µM; with Candida albicans [4], 4.5 µM; in the experiment on Nakaseomyces glabratus [6] it was 2.1 µM; with Pichia kudriavzevii [8], 2.1 µM; in the experiment on Aspergillus fumigatus [10] (setting [12]) it was 4.5 µM. In addition, in the experiment on Vero, the IC50 was determined as 29 µM.
In the case of `CCCCCCCCCCCCCCC1(O)C(C)=C(C)C2=[N+](Cc3ccc(F)cc3)CCCN21` (stereo not drawn), the MIC with Cryptococcus neoformans [1] came out at 1.5 µM; in the experiment on Candida albicans [3], 6.7 µM; in the experiment on Nakaseomyces glabratus [5], 2.2 µM; with Pichia kudriavzevii [7], 2.2 µM; with Aspergillus fumigatus [9] (setting [11]) it was 3.1 µM. The MFC in the experiment with Cryptococcus neoformans [2] was found to be 1.5 µM; in the experiment with Candida albicans [4], 6.7 µM; with Nakaseomyces glabratus [6], 2.2 µM; in the experiment with Pichia kudriavzevii [8], 2.2 µM; in the experiment on Aspergillus fumigatus [10] (setting [12]) it was 3.1 µM. In addition, the IC50 with Vero was 33 µM.
Take `CCCCCCCCCCCCCCC1(O)C(C)=C(C)C2=[N+](Cc3ccc(Cl)cc3)CCCN21` (stereo not drawn): the MIC in the experiment with Cryptococcus neoformans [1] is 3.7 µM; in the experiment on Candida albicans [3], 3.7 µM; in the experiment on Nakaseomyces glabratus [5], 2.1 µM; in the experiment on Pichia kudriavzevii [7], 2.1 µM; in the experiment on Aspergillus fumigatus [9] (setting [11]), 4.4 µM. Also, the MFC amounted to 3.7 µM in the experiment with Cryptococcus neoformans [2]; 3.7 µM in the experiment with Candida albicans [4]; 2.1 µM with Nakaseomyces glabratus [6]; 2.1 µM in the experiment with Pichia kudriavzevii [8]; 4.4 µM in the experiment with Aspergillus fumigatus [10] (setting [12]). The concentration for half-maximal inhibition (IC50) in the experiment with Vero was found to be 42 µM.
With `CCCCCCCCCCCCCCC1(O)C(C)=C(C)C2=[N+](Cc3cccc(OC)c3)CCCN21` (stereo not drawn), the minimal inhibitory concentration (MIC) is 1.1 µM in the experiment on Cryptococcus neoformans [1]; 3 µM in the experiment on Candida albicans [3]; 2.1 µM in the experiment with Nakaseomyces glabratus [5]; 2.1 µM with Pichia kudriavzevii [7]; 3 µM with Aspergillus fumigatus [9] (setting [11]). In addition, the MFC in the experiment on Cryptococcus neoformans [2] was 1.1 µM; with Candida albicans [4], 3 µM; in the experiment on Nakaseomyces glabratus [6], 2.1 µM; in the experiment on Pichia kudriavzevii [8] it was 3 µM; in the experiment with Aspergillus fumigatus [10] (setting [12]) it was 3 µM. Moreover, in the experiment with Vero, the IC50 was determined as 24 µM.
Consider `CCCCCCCCCCCCCCC1(O)c2ccccc2C2=[N+](C)CCCN21` (stereo not drawn), for which the minimal inhibitory concentration (MIC) in the experiment with Cryptococcus neoformans [1] was 6.4 µM; in the experiment with Candida albicans [3] it was 4.3 µM; in the experiment on Nakaseomyces glabratus [5], 13 µM; in the experiment with Pichia kudriavzevii [7] it was 13 µM; in the experiment with Aspergillus fumigatus [9] (setting [11]) it was 35 µM. Moreover, the MFC in the experiment on Cryptococcus neoformans [2] worked out at 6.4 µM; in the experiment on Candida albicans [4] it was 4.3 µM; in the experiment with Nakaseomyces glabratus [6], 16 µM; in the experiment on Pichia kudriavzevii [8] it was 13 µM; in the experiment with Aspergillus fumigatus [10] (setting [12]) it was 35 µM. Moreover, the half-maximal inhibitory concentration (IC50) with Vero came out at 42 µM.
As for `CCCCCCCCCCCCCCC1(O)C(C)=C(C)C2=[N+](Cc3cc(OC)c(OC)c(OC)c3)CCCN21` (stereo not drawn), the MIC is 1.6 µM with Cryptococcus neoformans [1]; 5.3 µM in the experiment with Candida albicans [3]; 4 µM in the experiment with Nakaseomyces glabratus [5]; 1.9 µM in the experiment with Pichia kudriavzevii [7]; 4 µM in the experiment on Aspergillus fumigatus [9] (setting [11]). Besides, the MFC with Cryptococcus neoformans [2] amounted to 1.6 µM; in the experiment on Candida albicans [4], 5.3 µM; in the experiment on Nakaseomyces glabratus [6], 4 µM; in the experiment on Pichia kudriavzevii [8], 1.9 µM; in the experiment on Aspergillus fumigatus [10] (setting [12]), 4 µM. Also, the half-maximal inhibitory concentration (IC50) in the experiment on Vero is > 40 µM.
